From ChEMBL document CHEMBL4507284, “Data for DCP probe BI-1230” (2021)

How the values were obtained:
[1] = molecular target: Tyrosine-protein kinase ZAP-70 (Homo sapiens) (UniProt P43403); details: Compound concentration 1000.0 nM
[2] = molecular target: Dual specificity protein kinase CLK3 (Homo sapiens) (UniProt P49761); details: Compound concentration 1000.0 nM
[3] = molecular target: 5'-AMP-activated protein kinase catalytic subunit alpha-1 (Homo sapiens) (UniProt Q13131); details: Compound concentration 1000.0 nM
Chain of 5'-AMP-activated protein kinase catalytic subunit alpha-1 (Homo sapiens) (Q13131 whole entry, looked up): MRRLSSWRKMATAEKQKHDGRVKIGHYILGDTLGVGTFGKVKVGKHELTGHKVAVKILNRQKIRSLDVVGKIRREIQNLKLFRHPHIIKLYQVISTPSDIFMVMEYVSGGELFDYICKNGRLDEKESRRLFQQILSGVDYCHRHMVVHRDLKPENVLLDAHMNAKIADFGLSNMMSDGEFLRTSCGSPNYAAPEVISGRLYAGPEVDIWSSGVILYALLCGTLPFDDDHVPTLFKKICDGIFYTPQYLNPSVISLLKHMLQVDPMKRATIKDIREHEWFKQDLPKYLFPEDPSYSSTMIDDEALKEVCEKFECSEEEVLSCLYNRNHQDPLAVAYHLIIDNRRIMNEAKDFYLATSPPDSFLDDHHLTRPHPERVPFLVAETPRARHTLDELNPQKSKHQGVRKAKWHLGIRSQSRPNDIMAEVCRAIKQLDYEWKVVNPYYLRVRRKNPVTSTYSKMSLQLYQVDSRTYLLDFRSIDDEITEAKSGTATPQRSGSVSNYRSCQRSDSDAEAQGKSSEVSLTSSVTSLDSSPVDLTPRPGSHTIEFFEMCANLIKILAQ

[4] = molecular target: Alpha-2B adrenergic receptor (Homo sapiens) (UniProt P18089); details: Compound concentration 10.0 uM
[5] = molecular target: Glycogen synthase kinase-3 beta (Homo sapiens) (UniProt P49841); details: Compound concentration 1000.0 nM
[6] = molecular target: Cyclin-dependent kinase-like 3 (Homo sapiens) (UniProt Q8IVW4); details: Compound concentration 1000.0 nM
[7] = molecular target: Ribosomal protein S6 kinase alpha-6 (Homo sapiens) (UniProt Q9UK32); details: Compound concentration 1000.0 nM
Chain of Ribosomal protein S6 kinase alpha-6 (Homo sapiens) (Q9UK32 whole entry): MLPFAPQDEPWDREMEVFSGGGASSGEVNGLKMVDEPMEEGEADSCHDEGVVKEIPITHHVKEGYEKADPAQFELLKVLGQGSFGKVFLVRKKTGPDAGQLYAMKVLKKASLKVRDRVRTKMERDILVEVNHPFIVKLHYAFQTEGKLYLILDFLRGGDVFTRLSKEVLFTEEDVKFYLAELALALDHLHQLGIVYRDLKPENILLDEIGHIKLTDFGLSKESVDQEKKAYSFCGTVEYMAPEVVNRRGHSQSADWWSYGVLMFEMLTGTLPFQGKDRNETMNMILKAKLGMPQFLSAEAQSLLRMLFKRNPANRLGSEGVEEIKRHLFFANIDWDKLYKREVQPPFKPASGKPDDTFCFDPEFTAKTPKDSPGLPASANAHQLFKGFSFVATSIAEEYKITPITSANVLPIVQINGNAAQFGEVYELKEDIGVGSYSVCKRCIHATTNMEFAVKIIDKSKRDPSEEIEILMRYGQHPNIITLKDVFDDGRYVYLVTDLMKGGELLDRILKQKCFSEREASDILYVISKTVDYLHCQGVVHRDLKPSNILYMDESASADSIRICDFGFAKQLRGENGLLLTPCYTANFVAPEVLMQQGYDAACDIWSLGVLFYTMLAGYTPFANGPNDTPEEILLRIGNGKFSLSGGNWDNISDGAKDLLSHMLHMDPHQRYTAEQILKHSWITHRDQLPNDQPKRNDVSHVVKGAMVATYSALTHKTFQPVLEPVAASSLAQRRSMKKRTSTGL

[8] = molecular target: Macrophage colony-stimulating factor 1 receptor (Homo sapiens) (UniProt P07333); details: Compound concentration 1000.0 nM
[9] = molecular target: Serine/threonine-protein kinase WNK4 (Homo sapiens) (UniProt Q96J92); details: Compound concentration 1000.0 nM
[10] = molecular target: Dual specificity mitogen-activated protein kinase kinase 2 (Homo sapiens) (UniProt P36507); details: Compound concentration 1000.0 nM
[11] = molecular target: Serine/threonine-protein kinase STK11 (Homo sapiens) (UniProt Q15831); details: Compound concentration 1000.0 nM
Chain of Serine/threonine-protein kinase STK11 (Homo sapiens) (Q15831 whole entry): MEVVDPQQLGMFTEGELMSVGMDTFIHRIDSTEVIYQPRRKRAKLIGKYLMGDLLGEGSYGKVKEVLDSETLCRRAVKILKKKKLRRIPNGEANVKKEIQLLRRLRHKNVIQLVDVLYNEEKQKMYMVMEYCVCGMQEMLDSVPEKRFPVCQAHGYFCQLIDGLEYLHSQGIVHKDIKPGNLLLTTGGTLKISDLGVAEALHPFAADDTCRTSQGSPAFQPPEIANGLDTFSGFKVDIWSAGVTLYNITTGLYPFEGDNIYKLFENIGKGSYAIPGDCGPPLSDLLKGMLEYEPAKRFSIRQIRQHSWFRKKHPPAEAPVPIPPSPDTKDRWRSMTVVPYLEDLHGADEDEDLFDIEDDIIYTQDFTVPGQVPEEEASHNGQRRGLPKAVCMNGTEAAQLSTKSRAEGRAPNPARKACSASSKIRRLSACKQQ

[12] = molecular target: Mitogen-activated protein kinase kinase kinase 9 (Homo sapiens) (UniProt P80192); details: Compound concentration 1000.0 nM
[13] = test system: Mast/stem cell growth factor receptor Kit (Homo sapiens), P10721 [D816H]; details: Compound concentration 1000.0 nM
[14] = molecular target: Mitogen-activated protein kinase 11 (Homo sapiens) (UniProt Q15759); details: Compound concentration 1000.0 nM
[15] = molecular target: Mitogen-activated protein kinase kinase kinase 10 (Homo sapiens) (UniProt Q02779); details: Compound concentration 1000.0 nM
Chain of Mitogen-activated protein kinase kinase kinase 10 (Homo sapiens) (Q02779 whole entry, looked up): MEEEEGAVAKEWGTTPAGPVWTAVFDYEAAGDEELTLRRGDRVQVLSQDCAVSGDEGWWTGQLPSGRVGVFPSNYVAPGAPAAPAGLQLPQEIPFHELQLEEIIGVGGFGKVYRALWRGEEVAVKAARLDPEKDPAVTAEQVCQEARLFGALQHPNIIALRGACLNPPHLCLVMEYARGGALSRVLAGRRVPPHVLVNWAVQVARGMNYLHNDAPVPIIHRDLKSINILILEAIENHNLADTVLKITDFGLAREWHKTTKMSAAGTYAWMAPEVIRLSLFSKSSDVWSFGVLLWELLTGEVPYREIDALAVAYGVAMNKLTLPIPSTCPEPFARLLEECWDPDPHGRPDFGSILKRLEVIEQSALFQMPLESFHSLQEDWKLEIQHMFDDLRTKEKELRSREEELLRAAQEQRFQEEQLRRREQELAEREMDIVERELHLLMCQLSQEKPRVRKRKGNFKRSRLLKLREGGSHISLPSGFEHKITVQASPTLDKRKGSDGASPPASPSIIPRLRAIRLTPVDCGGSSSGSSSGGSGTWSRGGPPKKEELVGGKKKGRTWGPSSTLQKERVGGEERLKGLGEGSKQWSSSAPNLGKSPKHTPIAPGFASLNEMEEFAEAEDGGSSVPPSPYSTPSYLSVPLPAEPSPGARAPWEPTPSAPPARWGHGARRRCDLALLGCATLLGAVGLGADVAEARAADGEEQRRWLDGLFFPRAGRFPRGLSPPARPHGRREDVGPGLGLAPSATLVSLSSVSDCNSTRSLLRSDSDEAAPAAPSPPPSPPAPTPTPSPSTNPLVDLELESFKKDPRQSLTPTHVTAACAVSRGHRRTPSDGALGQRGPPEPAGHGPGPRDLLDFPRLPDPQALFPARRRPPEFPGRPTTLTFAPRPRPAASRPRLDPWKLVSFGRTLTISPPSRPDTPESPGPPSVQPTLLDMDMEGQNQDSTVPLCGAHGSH

[16] = molecular target: Mitogen-activated protein kinase kinase kinase kinase 4 (Homo sapiens) (UniProt O95819); details: Compound concentration 1000.0 nM
[17] = molecular target: Cyclin-dependent kinase-like 1 (Homo sapiens) (UniProt Q00532); details: Compound concentration 1000.0 nM
[18] = molecular target: MAP kinase-interacting serine/threonine-protein kinase 2 (Homo sapiens) (UniProt Q9HBH9); details: Compound concentration 1000.0 nM
[19] = molecular target: Myosin light chain kinase (Homo sapiens) (UniProt Q32MK0); details: Compound concentration 1000.0 nM
[20] = molecular target: Phosphatidylinositol 3-kinase C2 domain-containing subunit gamma (Homo sapiens) (UniProt O75747); details: Compound concentration 1000.0 nM
[21] = molecular target: Serine/threonine-protein kinase pim-2 (Homo sapiens) (UniProt Q9P1W9); details: Compound concentration 1000.0 nM
[22] = molecular target: Serine/threonine-protein kinase 10 (Homo sapiens) (UniProt O94804); details: Compound concentration 1000.0 nM
[23] = test system: Mast/stem cell growth factor receptor Kit (Homo sapiens), P10721 [L576P]; details: Compound concentration 1000.0 nM
[24] = molecular target: Aurora kinase A (Homo sapiens) (UniProt O14965); details: Compound concentration 1000.0 nM
[25] = molecular target: Mast/stem cell growth factor receptor Kit (Homo sapiens) (UniProt P10721); details: Compound concentration 1000.0 nM
[26] = test system: Receptor-type tyrosine-protein kinase FLT3 (Homo sapiens), P36888 [D835Y]; details: Compound concentration 1000.0 nM
[27] = molecular target: Focal adhesion kinase 1 (Homo sapiens) (UniProt Q05397); details: Compound concentration 1000.0 nM
[28] = test system: Phosphatidylinositol 4,5-bisphosphate 3-kinase catalytic subunit alpha isoform (Homo sapiens), P42336 [E545K]; details: Compound concentration 1000.0 nM
[29] = molecular target: Ephrin type-A receptor 3 (Homo sapiens) (UniProt P29320); details: Compound concentration 1000.0 nM
Chain of Ephrin type-A receptor 3 (Homo sapiens) (P29320 whole entry): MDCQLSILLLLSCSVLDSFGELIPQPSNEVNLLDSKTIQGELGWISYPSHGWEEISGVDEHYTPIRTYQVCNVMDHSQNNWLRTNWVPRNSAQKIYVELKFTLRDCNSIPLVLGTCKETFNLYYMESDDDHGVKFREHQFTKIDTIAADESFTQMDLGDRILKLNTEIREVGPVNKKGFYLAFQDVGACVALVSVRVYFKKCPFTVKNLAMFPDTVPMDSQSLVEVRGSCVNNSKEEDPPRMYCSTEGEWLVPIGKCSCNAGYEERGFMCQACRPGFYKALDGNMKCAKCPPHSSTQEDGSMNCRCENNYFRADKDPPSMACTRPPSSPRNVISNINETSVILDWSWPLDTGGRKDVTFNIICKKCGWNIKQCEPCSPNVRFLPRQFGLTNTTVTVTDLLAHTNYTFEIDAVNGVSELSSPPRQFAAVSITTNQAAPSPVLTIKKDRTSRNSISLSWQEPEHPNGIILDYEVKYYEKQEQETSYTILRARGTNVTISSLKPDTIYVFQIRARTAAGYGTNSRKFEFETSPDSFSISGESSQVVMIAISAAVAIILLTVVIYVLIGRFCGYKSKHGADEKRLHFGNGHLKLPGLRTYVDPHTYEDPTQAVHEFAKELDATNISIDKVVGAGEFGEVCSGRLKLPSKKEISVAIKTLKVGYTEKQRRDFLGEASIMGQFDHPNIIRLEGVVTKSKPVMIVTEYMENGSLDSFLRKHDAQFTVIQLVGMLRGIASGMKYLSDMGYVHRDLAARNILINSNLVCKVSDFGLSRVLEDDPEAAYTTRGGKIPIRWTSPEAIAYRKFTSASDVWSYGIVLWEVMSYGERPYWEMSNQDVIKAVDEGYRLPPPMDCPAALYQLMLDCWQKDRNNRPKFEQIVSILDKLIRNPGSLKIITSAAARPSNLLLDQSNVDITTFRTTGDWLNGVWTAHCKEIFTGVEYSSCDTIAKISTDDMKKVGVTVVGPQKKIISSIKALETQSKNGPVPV

[30] = molecular target: TRAF2 and NCK-interacting protein kinase (Homo sapiens) (UniProt Q9UKE5); details: Compound concentration 1000.0 nM
[31] = molecular target: Ribosomal protein S6 kinase alpha-5 (Homo sapiens) (UniProt O75582); details: Compound concentration 1000.0 nM
Chain of Ribosomal protein S6 kinase alpha-5 (Homo sapiens) (O75582 whole entry, looked up): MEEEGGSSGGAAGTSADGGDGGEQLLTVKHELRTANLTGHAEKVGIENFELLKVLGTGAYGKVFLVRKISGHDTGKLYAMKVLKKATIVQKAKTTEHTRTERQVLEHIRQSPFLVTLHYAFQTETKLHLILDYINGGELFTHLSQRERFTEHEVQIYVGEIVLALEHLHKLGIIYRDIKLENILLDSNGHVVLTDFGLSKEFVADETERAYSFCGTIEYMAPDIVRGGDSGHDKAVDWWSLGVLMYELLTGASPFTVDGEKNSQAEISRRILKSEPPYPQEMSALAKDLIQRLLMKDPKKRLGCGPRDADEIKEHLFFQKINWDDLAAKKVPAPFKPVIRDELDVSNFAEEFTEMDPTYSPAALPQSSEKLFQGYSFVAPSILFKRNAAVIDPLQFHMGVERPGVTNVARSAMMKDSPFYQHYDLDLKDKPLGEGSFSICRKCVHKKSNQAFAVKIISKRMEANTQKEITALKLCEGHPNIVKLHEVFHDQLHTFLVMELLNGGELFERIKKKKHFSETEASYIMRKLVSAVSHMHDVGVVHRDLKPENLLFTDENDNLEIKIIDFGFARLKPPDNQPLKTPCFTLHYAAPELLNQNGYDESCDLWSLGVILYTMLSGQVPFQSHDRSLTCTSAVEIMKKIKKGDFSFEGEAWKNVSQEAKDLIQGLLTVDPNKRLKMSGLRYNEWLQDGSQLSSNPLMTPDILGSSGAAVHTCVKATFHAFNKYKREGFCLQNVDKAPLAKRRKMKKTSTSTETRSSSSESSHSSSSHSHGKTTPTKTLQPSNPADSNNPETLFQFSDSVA

[32] = molecular target: Serine/threonine-protein kinase pim-3 (Homo sapiens) (UniProt Q86V86); details: Compound concentration 1000.0 nM
[33] = molecular target: SRSF protein kinase 1 (Homo sapiens) (UniProt Q96SB4); details: Compound concentration 1000.0 nM
[34] = molecular target: Serine/threonine-protein kinase TAO3 (Homo sapiens) (UniProt Q9H2K8); details: Compound concentration 1000.0 nM
[35] = molecular target: Casein kinase II subunit alpha' (Homo sapiens) (UniProt P19784); details: Compound concentration 1000.0 nM
[36] = molecular target: AP2-associated protein kinase 1 (Homo sapiens) (UniProt Q2M2I8); details: Compound concentration 1000.0 nM
[37] = molecular target: Serine/threonine-protein kinase LATS2 (Homo sapiens) (UniProt Q9NRM7); details: Compound concentration 1000.0 nM
[38] = molecular target: Mitogen-activated protein kinase kinase kinase 4 (Homo sapiens) (UniProt Q9Y6R4); details: Compound concentration 1000.0 nM
[39] = molecular target: Serine/threonine-protein kinase PAK 4 (Homo sapiens) (UniProt O96013); details: Compound concentration 1000.0 nM
Chain of Serine/threonine-protein kinase PAK 4 (Homo sapiens) (O96013 whole entry, looked up): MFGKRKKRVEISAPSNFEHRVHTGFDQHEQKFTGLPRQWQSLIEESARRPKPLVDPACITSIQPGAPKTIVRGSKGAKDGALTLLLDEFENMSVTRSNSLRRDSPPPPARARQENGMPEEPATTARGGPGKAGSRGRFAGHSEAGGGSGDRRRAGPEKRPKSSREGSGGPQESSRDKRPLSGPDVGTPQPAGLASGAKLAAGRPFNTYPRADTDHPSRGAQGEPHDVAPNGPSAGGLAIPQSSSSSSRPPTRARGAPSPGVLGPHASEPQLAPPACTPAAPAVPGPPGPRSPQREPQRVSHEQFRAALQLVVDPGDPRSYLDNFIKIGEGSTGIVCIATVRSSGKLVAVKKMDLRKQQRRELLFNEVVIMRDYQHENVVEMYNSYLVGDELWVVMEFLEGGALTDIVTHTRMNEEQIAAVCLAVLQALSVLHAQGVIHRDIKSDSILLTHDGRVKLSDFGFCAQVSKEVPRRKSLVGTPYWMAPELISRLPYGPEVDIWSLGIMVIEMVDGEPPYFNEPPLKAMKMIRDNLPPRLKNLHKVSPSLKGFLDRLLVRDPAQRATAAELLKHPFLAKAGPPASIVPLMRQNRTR

[40] = molecular target: Serine/threonine-protein kinase 16 (Homo sapiens) (UniProt O75716); details: Compound concentration 1000.0 nM
[41] = molecular target: Serine/threonine-protein kinase tousled-like 1 (Homo sapiens) (UniProt Q9UKI8); details: Compound concentration 1000.0 nM
[42] = molecular target: Cyclin-dependent kinase 4 (Homo sapiens) (UniProt P11802); details: Compound concentration 1000.0 nM
[43] = molecular target: Casein kinase I isoform delta (Homo sapiens) (UniProt P48730); details: Compound concentration 1000.0 nM
[44] = test system: Tyrosine-protein kinase ABL1 (Homo sapiens), P00519 [F317L]; details: Compound concentration 1000.0 nM
[45] = molecular target: Dual specificity mitogen-activated protein kinase kinase 4 (Homo sapiens) (UniProt P45985); details: Compound concentration 1000.0 nM

COc1ccc2c(O[C@@H]3C[C@H]4C(=O)N[C@]5(C(=O)O)CC5/C=C\CCCCC[C@H](NC(=O)OC5CCCC5)C(=O)N4C3)cc(-c3csc(NC(=O)C(C)C)n3)nc2c1C (stereo not given in full) [BI 1230]
inactive: residual activity [1] 100% | residual activity [2] 100% | residual activity [3] 100% | residual activity [5] 100% | residual activity [6] 92% | residual activity [7] 100% | residual activity [8] 89% | residual activity [9] 91% | residual activity [10] 77% | residual activity [11] 100% | residual activity [12] 100% | residual activity [13] 86% | residual activity [14] 100% | residual activity [15] 93% | residual activity [16] 100% | residual activity [17] 99% | residual activity [18] 70% | residual activity [19] 100% | residual activity [20] 86% | residual activity [21] 100% | residual activity [22] 100% | residual activity [23] 90% | residual activity [24] 69% | residual activity [25] 100% | residual activity [26] 87% | residual activity [27] 99% | residual activity [28] 68% | residual activity [29] 97% | residual activity [30] 96% | residual activity [31] 100% | residual activity [32] 94% | residual activity [33] 100% | residual activity [34] 88% | residual activity [35] 100% | residual activity [36] 100% | residual activity [37] 98% | residual activity [38] 74% | residual activity [39] 99% | residual activity [40] 100% | residual activity [41] 100% | residual activity [42] 100% | residual activity [43] 100% | residual activity [44] 75% | residual activity [45] 100%
active: inhibition [4] 60.3%

O=C(N[C@H]1CCCCC/C=C\C2C[C@@]2(C(=O)O)NC(=O)[C@@H]2C[C@@H](Oc3ccncc3)CN2C1=O)OC1CCCC1 (stereo not given in full) [BI 1675]
inactive: residual activity [1] 96% | residual activity [2] 93% | residual activity [3] 100% | inhibition [4] 8.15% | residual activity [5] 89% | residual activity [6] 99% | residual activity [7] 86% | residual activity [8] 92% | residual activity [9] 100% | residual activity [10] 87% | residual activity [11] 85% | residual activity [12] 97% | residual activity [13] 100% | residual activity [14] 100% | residual activity [15] 100% | residual activity [16] 100% | residual activity [17] 100% | residual activity [18] 75% | residual activity [19] 75% | residual activity [20] 71% | residual activity [21] 100% | residual activity [22] 99% | residual activity [23] 91% | residual activity [24] 92% | residual activity [25] 91% | residual activity [26] 98% | residual activity [27] 97% | residual activity [28] 95% | residual activity [29] 86% | residual activity [30] 78% | residual activity [31] 89% | residual activity [32] 100% | residual activity [33] 91% | residual activity [34] 100% | residual activity [35] 100% | residual activity [36] 77% | residual activity [37] 100% | residual activity [38] 91% | residual activity [39] 99% | residual activity [40] 79% | residual activity [41] 82% | residual activity [42] 100% | residual activity [43] 81% | residual activity [44] 100% | residual activity [45] 73%
